The record followed here is ChEMBL document CHEMBL4819143, “Discovery of JMJD7 inhibitors with the aid of virtual screening and bioactivity evaluation” (Bioorg Med Chem Lett, 2021).

For experiment [1], the target named is Bifunctional peptidase and (3S)-lysyl hydroxylase JMJD7 (Homo sapiens, UniProt P0C870). As to the kind of experiment: Inhibition of N-terminal His-tagged human JMJD7 (1 to 316 residues) expressed in Escherichia coli BL21 (DE3) luciferase based succinate-gloTM JmjC demethylase/hydroxylase assay.
Chain of Bifunctional peptidase and (3S)-lysyl hydroxylase JMJD7 (P0C870 whole entry, the tested form may be a part): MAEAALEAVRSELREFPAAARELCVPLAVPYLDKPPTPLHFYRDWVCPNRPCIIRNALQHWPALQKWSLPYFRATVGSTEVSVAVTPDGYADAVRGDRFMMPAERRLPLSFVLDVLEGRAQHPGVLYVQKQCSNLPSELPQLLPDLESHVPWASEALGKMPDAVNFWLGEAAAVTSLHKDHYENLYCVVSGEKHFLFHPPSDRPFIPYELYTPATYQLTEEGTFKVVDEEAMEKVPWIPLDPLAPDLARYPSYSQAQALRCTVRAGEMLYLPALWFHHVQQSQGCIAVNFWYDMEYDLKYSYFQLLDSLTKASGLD
The test system of the next experiment is T47D. As to the kind of experiment: Cytotoxicity against human T47D cells assessed as growth inhibition measured after 72 hrs by MTT assay.
For another experiment, the system named is SK-BR-3. As to the kind of experiment: Cytotoxicity against human SK-BR-3 cells assessed as growth inhibition measured after 72 hrs by MTT assay. To be noted: SK-BR-3, 72 h.
The test system of the next experiment is Jurkat. The experiment in a line: Cytotoxicity against human Jurkat cells assessed as growth inhibition measured after 72 hrs by MTT assay.
In the next experiment the test system is HeLa. As to the kind of experiment: Cytotoxicity against human HeLa cells assessed as growth inhibition measured after 72 hrs by MTT assay.
In a further experiment the test system is BJ. The experiment in a line: Cytotoxicity against human BJ cells assessed as growth inhibition measured after 72 hrs by MTT assay. In general terms: Tetrazolium assays rely on reduction of a dye to a coloured formazan, in cell work by metabolically active cells.
For another experiment, the system named is SH-SY5Y. The experiment in a line: Cytotoxicity against human SH-SY5Y cells assessed as growth inhibition measured after 72 hrs by MTT assay.

Take `COc1ccc(CCC(=O)Nc2ccccc2C(=O)O)cc1OC`: inhibition in experiment [1] was half-maximal at 33.2 µM (IC50).

With `CCCNC(=O)c1ccc(-c2nc3ccccc3s2)s1`, the IC50 (as a rule, the point on the concentration scale where inhibition reaches its midpoint) in experiment [1] amounted to 11 µM.

For the compound `Oc1c(C(Nc2ccccn2)c2ccccc2)ccc2cccnc12` (stereo not given), the IC50 in experiment [1] was determined as 31.6 µM.

For the compound `O=C(Oc1ccc([N+](=O)[O-])c2cccnc12)c1ccc(Cl)cc1Cl`, the IC50 in the experiment with T47D is 9.4 µM; with SK-BR-3 it was 13.3 µM; with Jurkat it was 15 µM; with HeLa, 16.1 µM; in the experiment on BJ it was more than 100 µM; in the experiment on SH-SY5Y it was more than 100 µM.

In experiment [1], `COc1cccc(-c2ccc(NC(=O)C3=C(C(=O)O)CCC3)c(F)c2)c1` [VIDOFLUDIMUS] came in with a half-maximal inhibitory concentration (IC50) of 7.16 µM.
